PMC3323581, “Membrane Association of the PTEN Tumor Suppressor: Molecular Details of the Protein-Membrane Complex from SPR Binding Studies and Neutron Reflection” (PLoS ONE, 2012)
Read-outs that look alike come from different tables or passages of the source. One block for each compound: values may come before it.

Tests used:
Experiment in all cases: SPR equilibrium binding to sparsely-tethered bilayer (stBLM)
wt PTEN [1] = molecular target: T1, wt PTEN (Homo sapiens, UniProt P60484); settings: for Kd: read-out: Kd (μM) / Component a
T1 construct: full-length, six-histidine tag at the C-terminus, expressed in Escherichia coli BL21 (DE3)
Description: (§1) SPR equilibrium binding to sparsely-tethered bilayer (stBLM) on wt PTEN

wt PTEN [2] = molecular target: T2, wt PTEN (Homo sapiens, UniProt P60484, H93R); settings: DOPC:PI(4,5)P2 97.8:2.2 bilayer, pH 7.0, room temperature
T2 construct: full-length, six-histidine tag at the C-terminus, expressed in Escherichia coli BL21 (DE3)
Description: as §1

wt PTEN [3] = molecular target: T3, wt PTEN (Homo sapiens, UniProt P60484, C124S)
T3 construct: full-length, six-histidine tag at the C-terminus, expressed in Escherichia coli BL21 (DE3)
Description: as §1

truncated PTEN = molecular target: T4, truncated PTEN (Homo sapiens, UniProt P60484, DEL286-309); settings: DOPC:PI(4,5)P2 97.8:2.2 bilayer, pH 7.0, room temperature
T4 construct: crystallization construct: residues 1-6, loop 286-309 and C-terminal tail 354-403 deleted; plasmid from N. R. Leslie; expressed in E. coli, His-tag purified
Description: SPR equilibrium binding to sparsely-tethered bilayer (stBLM) on truncated PTEN

Kd (wt PTEN [1]; DOPC:PI(4,5)P2 97.8:2.2 bilayer (same Kd at 0.7 and 3.7 mol%), 100 mM NaCl, 10 mM HEPES, 1 mM EDTA, pH 7.0, room temperature, Kd as protein concentration at half saturation): 0.4 ± 0.1 µM
Kd (wt PTEN [2]): 1300 ± 200 nM
Kd (wt PTEN [3]; DOPC:PI(4,5)P2 97.8:2.2 bilayer, pH 7.0, room temperature): 320 ± 30 nM
Kd (truncated PTEN): 770 ± 70 nM
Compound: PI(4,5)P2

Kd (μM) / Component a (wt PTEN [1]; DOPC:PI(3,4,5)P3 97.9:2.1 bilayer, pH 7.0, room temperature, unreliable (active enzyme likely converts the lipid during the measurement)): 2.4 ± 0.2 µM
Kd (wt PTEN [3]): 120 ± 30 nM
Compound: CCCCCCCCCCCCCCCC(=O)OC[C@H](COP(=O)(O)O[C@H]1[C@H](O)[C@@H](OP(=O)(O)O)[C@H](OP(=O)(O)O)[C@@H](OP(=O)(O)O)[C@H]1O)OC(=O)CCCCCCCCCCCCCCC [PI(3,4,5)P3]

Kd (wt PTEN [1]): 1.9 ± 0.3 µM
Compound: CCCCCCCCCCCCCCCC(=O)OC[C@H](COP(=O)(O)O[C@@H]1[C@H](O)[C@H](O)[C@@H](OP(=O)(O)O)[C@H](OP(=O)(O)O)[C@H]1O)OC(=O)CCCCCCCCCCCCCCC [DPPI(4,5)P2]
